Results: PubChem BioAssay AID179 (DTP/NCI, 2004)
Values joined by “and” are separate entries in the source; they are usually repeats but may differ in a detail not shown here. Equal values may be shown once. Active and inactive are the calls of the source.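 How the source made its calls: active means compounds giving half or more protection of infected cells from virus-caused growth loss, again on retest; inactive means the rest.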

Test system: CEM cells HIV-1 protection, formazan growth assay
Assay: NCI AIDS Antiviral Assay
Details: for IC50: measured here: growth of uninfected CEM cells
How it was run: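 Steps: treat uninfected and HIV-1-infected human CEM cells at five drug levels; quantify growth by soluble formazan; retest any compound reaching 50% protection; classify actives from the retest.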

| Structure (SMILES) | EC50 | IC50 | outcome |
| --- | --- | --- | --- |
| CCCCCCCCS(=O)(=O)c1ccc(O)c(C(=O)Nc2ccc(C(F)(F)F)cc2)c1 | > 40.7 µM | 1.58 µM | – |
| CCCCCCCC/C=C\CCCCCCCCN=Cc1c(O)c(O)c(C(C)C)c2cc(C)c(-c3c(C)cc4c(C(C)C)c(O)c(O)c(C=NCCCCCCCC/C=C\CCCCCCCC)c4c3O)c(O)c12 | – | – | inactive |
| CC(O)CCC(=O)NCCS(=O)(=O)O (stereo not given) | > 200 µM | > 200 µM | – |
| COC(=O)C1CCC(=S)N1C(=O)c1ccccc1 (stereo not given) | > 200 µM | > 200 µM | – |
| CC1CC(=O)C(C(O)CC2CC(=O)N(c3ccccc3)C(=O)C2)C(C)C1 (stereo not given) | > 200 µM | > 200 µM | – |
| CSC1=C(C)S/C(=C\c2ccc(/C=C3\SC(C)=C(SC)S3)cc2)S1 | – | – | inactive |
| O=C(c1ccco1)C1CC(c2c(O)ccc3ccccc23)=NN1 (stereo not given) | > 200 µM | 11.5 µM | – |
| OC(C#CCN1CCCC1)(c1ccccc1)c1ccccc1.[C-]#[O+].[C-]#[O+].[C-]#[O+].[C-]#[O+].[C-]#[O+].[C-]#[O+].[Co].[Co] | > 200 µM | 7.41 µM | – |
| COc1ccc(C2c3cc4c(cc3OC(NNS(=O)(=O)c3ccc(C)cc3)C2C)OCO4)cc1 (stereo not given) | > 200 µM | 26.3 µM | – |
| CCOC(=O)C(CCCl)C(=O)OCC | > 200 µM | > 200 µM | – |
| Cc1ccc(-c2c(C#N)c(O)n(NS(=O)(=O)c3ccccc3)c(=O)c2C#N)cc1 | > 200 µM | > 200 µM | – |
| COc1ccc(C(=O)/C=C/c2ccc(OCCSCCCCCCCCCCSCCOc3ccc(/C=C/C(=O)c4ccc(OC)c(OC)c4)cc3)cc2)cc1OC | – | – | inactive |
| CCOC(=O)c1ccc(N2C(=O)Cc3ccccc3C2=O)cc1 | – | – | inactive |
| Cc1cccc(C(O)c2cccnc2)c1O (stereo not given) | > 200 µM | > 200 µM | – |
| CSc1ccc(OCC2OC2O)cc1 (stereo not given) | > 24.5 µM | > 24.5 µM | – |
| O=c1oc2c/c(=C\c3ccc([N+](=O)[O-])cc3)c(=O)c3cccc1c3-2 | > 200 µM | 30.9 µM | – |
| COc1ccc2c(c1)CC[C@@H]1[C@@H]2CC[C@]2(C)/C(=N/OCCN3CCCCC3)CC[C@@H]12 | > 20 µM | 3.16 µM | – |
| CCn1c2ccccc2n2c(=O)c3c(c(C#N)c12)CCCC3 | > 200 µM | > 200 µM | – |
| C=C1CCCCCCCCCCC12SCCC2CCCCSC (stereo not given) | > 200 µM | 120 µM | – |
| CC(C)N1CCOC(c2ccc(O)c(O)c2)C1 (stereo not given) | > 200 µM | 95.5 µM | – |
| CC1(C)OC(=S)N(c2ccccc2)C12C=Cc1ccccc1O2 (stereo not given) | > 200 µM | 35.5 µM | – |
| CCc1n[nH]c(=O)n1O | > 200 µM | > 200 µM | – |
| CCN(CC)/[N+]([O-])=N/OC | – | – | inactive |
| CS(C)=O | > 200 µM | > 200 µM | – |

| Structure (SMILES) | EC50 | IC50 | outcome |
| --- | --- | --- | --- |
| Cc1ccc(S(=O)(=O)N=C2C=C(C(C)(C)C)C(=O)C(C(C)(C)C)=C2)cc1 | > 36.3 µM | > 36.3 µM | – |
| COC(=O)C(=O)Cc1nc2ccccc2s1 | – | – | inactive |
| CN1C(=O)C(O)CC1c1ccc(C(F)(F)F)cc1 (stereo not given) | – | – | inactive |
| C=C1CCC2C(C)(CO)C(O)CCC2(C)C1CC(O)C1=CCOC1=O (stereo not given) | – | – | inactive |
| c1cc(-c2cn3ccsc3n2)ccn1 | > 447 µM | 186 µM | – |
| CCCCCCCCCCCCCCCCC(c1ccc(O)c(C(=O)O)c1)c1ccc(O)c(C(=O)O)c1 | > 229 µM | 91.2 µM | – |
| CCCCN(CCCC)c1ccc(/C=C2/C=Cc3ccccc32)cc1 | > 11.2 µM | > 11.2 µM | – |
| COc1cc2c(c(OC)c1OC)-c1ccc(SC)c(=O)cc1[C@@H](NC(=O)C(F)(F)F)CC2 | > 75.9 µM | 0.0245 µM | – |
| O=C1NCC(=O)c2ncn(C3OC(CO)C(O)C3O)c2N1 (stereo not given) | > 603 µM | > 603 µM | – |
| COc1ccc2c(c1)CCC1=C2CCS1(=O)=O | > 200 µM | > 200 µM | – |
| CCCCN1C=CN2c3nc4cc(C)c(C)cc4n3C(C(=O)OC)=C(C(=O)OC)C12 (stereo not given) | – | – | inactive |
| Oc1c(NCn2nc(CCCCCCCCc3nn(CNc4ccc5ccccc5c4O)c(=S)o3)oc2=S)ccc2ccccc12 | > 200 µM | 35.5 µM | – |
| O=C1c2ccccc2C(=O)c2c1cccc2-n1nnc2cc(Cl)c(Cl)cc21 | – | – | inactive |
| Cn1c2ccccc2c2nnc(SCCN3CCOCC3)nc21 | > 200 µM | > 200 µM | – |
| Cc1c(C)c2cc3c(cc2oc1=O)OCC3 | > 83.2 µM | 55 µM | – |
| [N-]=[N+]=NC1(N=[N+]=[N-])C(=O)NN=C(c2ccccc2)C1=O (stereo not given) | – | – | inactive |
| Cc1ccc([C@H]2CC(=O)C[C@H](c3ccc(C)cc3)C23C(=O)c2ccccc2C3=O)cc1 | > 200 µM | > 200 µM | – |
| O=C(O)c1ccccc1NS(=O)(=O)c1ccc([N+](=O)[O-])cc1 | – | – | inactive |
| CC1(C)CC(Nc2ccc(Nc3ccccc3)cc2)CC(C)(C)N1 | > 562 µM | 4.27 µM | – |
| Cc1ccc2c(c1)nc1sc(C)cc(=O)n12 | > 200 µM | > 200 µM | – |
| Cc1ccc(S(=O)c2sccc2C=O)cc1 (stereo not given) | > 200 µM | 9.77 µM | – |
| O/N=C(\CSSC/C(=N/O)c1ccc(Cl)cc1)c1ccc(Cl)cc1 | > 200 µM | 10.7 µM | – |
| O=C(O)N1CCc2c(sc3ccccc23)C1 | > 95.5 µM | > 95.5 µM | – |
| CC(=O)c1cccc(NC(=O)Nc2cccc(C)n2)c1 | > 56.2 µM | 6.92 µM | – |

| Structure (SMILES) | EC50 | IC50 | outcome |
| --- | --- | --- | --- |
| CC(C)(C)C1(O)Cc2ccccc2C(=O)O1 (stereo not given) | > 309 µM | > 309 µM | – |
| O=C1c2ccncc2C(=O)c2c1[nH]c1ccccc21 | > 200 µM | 3.16 µM | – |
| Cc1[nH]c2ncn(N)c(=N)c2c1Cc1ccccc1 | > 200 µM | > 200 µM | – |
| Cc1cccc(C)c1NC(=O)CCCC(=O)C(C#N)c1ccc(Cl)cc1 (stereo not given) | > 135 µM | > 135 µM | – |
| CN(C)CCc1c2c(nc3ccccc13)C(=O)c1ccccc1C2=O | > 200 µM | 0.933 µM | – |
| NCCCCNCCCN1CCOC1=O | > 200 µM | > 200 µM | – |
| N#C/C(=C\c1ccc(O)c(O)c1)C(=O)NCc1cccc(CNC(=O)/C(C#N)=C/c2ccc(O)c(O)c2)c1 | > 200 µM | 10.2 µM | – |
| CCCN=Cc1c(O)c(O)c(C(C)C)c2cc(C)c(-c3c(C)cc4c(C(C)C)c(O)c(O)c(C=NCCC)c4c3O)c(O)c12 | > 6.31 µM | 1.15 µM | – |
| COc1ccnc(C(=O)N2CCCC2C(=O)O)c1 (stereo not given) | > 200 µM | > 200 µM | – |
| CC1=CC(=O)N(n2c(C)n[nH]c2=O)C1=O | > 200 µM | > 200 µM | – |
| COc1cc2c(c(OC)c1OC)C(=O)[C@@H](O)[C@H]2NC(N)=O | > 200 µM | > 200 µM | – |
| C=c1[nH]c(=O)c(=C)[nH]c1=O | > 72.4 µM | 26.3 µM | – |
| CCCCOC(=O)C(O)Cc1ccoc1 (stereo not given) | > 200 µM | > 200 µM | – |
| O=C(Nc1ccccc1)c1nn(-c2cc(S(=O)(=O)O)c([N+](=O)[O-])cc2Cl)[n+](-c2cc(S(=O)(=O)[O-])c([N+](=O)[O-])cc2Cl)n1 | 64.6 µM | > 100 µM | – |
| COc1ccc(C(=O)c2ccc(OC)c(S(=O)(=O)OC)c2)cc1S(=O)(=O)OC | > 43.7 µM | > 43.7 µM | – |
| Cc1cccc([P+](Cc2ccccc2)(c2cccc(C)c2)c2cccc(C)c2)c1 | > 200 µM | 0.589 µM | – |
| NC(N)=N/N=C(/CC1OC(=O)c2ccccc21)c1ccc2ccccc2c1 (stereo not given) | > 28.2 µM | > 28.2 µM | – |
| c1ccc([P+](Cc2ccccc2C[P+](c2ccccc2)(c2ccccc2)c2ccccc2)(c2ccccc2)c2ccccc2)cc1 | > 200 µM | 129 µM and 107 µM | – |
| CO/C(=N\N=Cc1ccccc1)c1ccncc1 | 15.1 µM | 166 µM | – |
| CSC1(CC(=O)N(C)C)C(=O)Nc2ccccc21 (stereo not given) | > 200 µM | > 200 µM | – |
| O=c1cc(-c2ccccc2)[nH]c(=S)[nH]1 | > 200 µM | > 200 µM | – |
| Cc1c(C(=O)O)[nH]c(=O)[nH]c1=O | > 200 µM | > 200 µM | – |
| COc1cc2c(cc1OC)C1c3ccccc3CN1CC2 (stereo not given) | > 200 µM | 105 µM | – |
